Tests used:
Assay type in all cases: in vivo
[1] = system: Alternanthera philoxeroides (alligatorweed); assay: Preemergence field trial in seeded rice, % visual weed control; conditions: USA, 22 to 54 days after application
Experimental: (§1) Field trials were conducted in rice and tree crops using standard herbicide small plot research methodology. Plot size was typical for small plot research, varying from 2 to 4 meters (m) wide by 6.7 to 10 meters long. There were 3 to 4 replicates per treatment. Soil types ranged from medium to fine soil texture. Rice or cereal crops were sown by mechanical direct dry seeding as per normal local cultural practices. The rice or cereal crop was grown using normal cultural practices for fertilization, watering, flooding and maintenance to ensure good growth of the crop and the weeds.
(§2) Treatments were applied by backpack sprayer using either compressed air or CO2, at spray pressures from 124 to 276 kilopascals (kPa). Spray tips were typically Flat Fan Teejet nozzles, such as TJ8002 to TJ110015 or XR11001. Spray volumes varied from 93.5 to 250 liters per hectare (L/ha). Penoxsulam was applied as the commercial products Grasp SC (240 gr ai/L) or Clipper 20 OD (20 grams ai/L); pendimethalin was applied as the commercial product Prowl EC.
(§3) For each treatment, the appropriate formulated product amount to treat the plot area, to achieve the desired application rate, based on unit area of application (hectare), was calculated, measured, and mixed in water prior to applying with the backpack sprayer. Treatments were rated as compared to the untreated control plots.
(§4) The treated plots and control plots were rated blind at various intervals after application. Ratings were based of Percent (%) Visual weed control, where 0 corresponds to no injury and 100 corresponds to complete kill.
(§5) Colby's equation was used to determine the herbicidal effects expected from the mixtures (Colby, S. R. Calculation of the synergistic and antagonistic response of herbicide combinations. Weeds 1967, 15, 20-22).
(§6) The following equation was used to calculate the expected activity of mixtures containing two active ingredients, A and B:
(§7) A=observed efficacy of active ingredient A at the same concentration as used in the mixture;
(§8) B=observed efficacy of active ingredient B at the same concentration as used in the mixture.

[2] = system: Echinochloa colonum (junglerice); assay: as above; conditions: 60 days after application
Experimental: as §1, §2, §3, §4, §5, §6, §7, §8

[3] = system: Ipomoea spp. (morningglory); assay: as above; conditions: Texas, USA, 22 to 54 days after application
Experimental: as §1, §2, §3, §4, §5, §6, §7, §8

[4] = system: Ischaemum rugosum (saramollagrass); assay: as above; conditions: 60 days after application
Experimental: as §1, §2, §3, §4, §5, §6, §7, §8

SEBEX = assay: as above; conditions: 22 to 54 days after application
Experimental: as §1, §2, §3, §4, §5, §6, §7, §8

[5] = system: Alopecurus myosuroides (blackgrass); assay: Preemergence field trial in perennial tree crops, % weed control; conditions: 206 days after application
Experimental: as §1, §2, §3, §4, §5, §6, §7, §8

Row | SMILES | % Visual Control ALRPH Obs ([1]; pendimethalin 1100 gai/ha, Arkansas) [%] | % Visual Control ALRPH Obs ([1]; pendimethalin 1100 gai/ha, Texas) [%] | % Visual Control ECHCO Obs ([2]; pendimethalin 750 gai/ha) [%] | % Visual Control IPOSS Obs ([3]; pendimethalin 1100 gai/ha) [%] | % Visual Control ISCRU Obs ([4]; pendimethalin 750 gai/ha) [%] | % Visual Control SEBEX Obs (SEBEX; pendimethalin 1100 gai/ha) [%] | % Control ALOMY Obs ([5]; pendimethalin 500 gai/ha) [%] | % Control ALOMY Obs ([5]; pendimethalin 1000 gai/ha) [%] | % Visual Control ALRPH Obs ([1]; penoxsulam 20 gai/ha, Arkansas) [%] | % Visual Control ALRPH Obs ([1]; penoxsulam 20 gai/ha, Texas) [%] | % Visual Control ECHCO Obs ([2]; penoxsulam 20 gai/ha) [%] | % Visual Control IPOSS Obs ([3]; penoxsulam 20 gai/ha) [%] | % Visual Control ISCRU Obs ([4]; penoxsulam 30 gai/ha) [%] | % Visual Control SEBEX Obs (SEBEX; penoxsulam 40 gai/ha) [%] | % Control ALOMY Obs ([5]; penoxsulam 10 gai/ha) [%] | % Control ALOMY Obs ([5]; penoxsulam 20 gai/ha) [%] | % Control ALOMY Obs ([5]; penoxsulam 30 gai/ha) [%] | % Control ALOMY Obs ([5]; penoxsulam 40 gai/ha) [%]
1 | CCC(CC)Nc1c([N+](=O)[O-])cc(C)c(C)c1[N+](=O)[O-] [Pendimethalin, N-(1-ethylpropyl)-3,4-dimethyl-2,6-dinitrobenzenamine] | 0 | 0 | 55 | 35 | 57 | 14 | 0 | 7 | – | – | – | – | – | – | – | – | – | –
2 | COc1cnc(OC)n2nc(NS(=O)(=O)c3c(OCC(F)F)cccc3C(F)(F)F)nc12 [Penoxsulam] | – | – | – | – | – | – | – | – | 43 | 74 | 25 | 21 | 35 | 40 | 0 | 20 | 43 | 50
